Laboratory results from patent US20120213860A1, “XENON-BASED INHALABLE DRUG FOR TREATING OR PREVENTING INDUCED DYSKINESIA” (L'Air Liquide Societe Anonyme Pour L'Etude Et …, priority 2009, published 2012).

Test system: dyskinesias induced by levodopa
Experiment: levodopa-induced abnormal involuntary movements (AIMs) in rats with unilateral 6-OHDA lesions (animal model of Parkinson's disease)
Format: in vivo, Sprague-Dawley rats
Method: More precisely, the effects of administering several gases as treatment of dyskinesias were evaluated in rats having lesions produced by unilateral injection of 6-OHDA (6-hydroxydopamine, a powerful neurotoxic) in an ascending nigrostriatal pathway (animal model of Parkinson's disease). In this model, long-term treatment of rats with levodopa induces abnormal involuntary movements (AIMs) that are similar to those in dyskinesias induced by levodopa in humans. The rats with lesions induced by 6-OHDA serving as the model of Parkinson's disease are prepared as follows. 16 Sprague-Dawley rats weighing between 250 and 300 g are kept in a room with controlled temperature (about 22° C.) with day/night cycles of 12 h, with free access to food and water. The animals receive, 30 min before the intervention, an intraperitoneal injection of pargyline (5 mg/kg; inhibitor of monoamine oxidase-B) and of desipramine (25 mg/kg; norepinephrine reuptake inhibitor). The animals are put in an anesthesia chamber with continuous flow of oxygen at 1.5 l/minute and 3% isoflurane. After anesthesia, the animals are placed in a stereotaxic frame. […] The injection site is localized according to the coordinates relative to bregma: −2.8 mm rostral, 2 mm lateral and 9 mm under the cranium (Paxinos and Watson, 1986). The rats are left to recover for 3 weeks after the lesions. The animals receive 0.05 mg/kg s.c. of apomorphine. […] The animals that remain receive an administration of 6 mg/kg of levodopa and 15 mg/kg of benzerazide (i.p.), twice a day, for 21 consecutive days. During these 21 days, the abnormal involuntary movements (AIMs) are assessed on days 1, 7, 14 and 21. The therapeutic treatments begin on day 22. They consist of administering the following to the rats by inhalation: • xenon/O2 gas mixtures (50%/50% by volume) as test gas according to the invention and; • N2/O2 gas mixtures (50%/50% by volume) as control. The gas mixtures are premixtures supplied by Air Liquide™. The gas concentrations are monitored continuously. Exposure to the gases is effected in a Plexiglas chamber with a length of 42 cm, and width and height of 26 cm. Each time, 4 or 5 rats are put in the chamber and inhale the test gas for 1 h. The chamber is supplied with fresh gas at a flow rate of 4 l/min. The abnormal involuntary movements (AIMs) are assessed for 180 min after injection of levodopa. More precisely, the animals are put in boxes (22 cm×34 cm×20 cm) and are left there for 15 minutes for them to become accustomed to their environment. Levodopa methyl ester (6 mg/kg, i.p.) is then administered at time intervals of 1 minute between rats. Each rat is observed for 1 minute at intervals of 30 minutes after injection and for a period of 180 min. Four subtypes of AIMs are assessed, namely: • Locomotor (Lo): increased movements contralateral to the lesion, • Hind limbs (Li): uncontrolled random movements of the hind limbs contralateral to the lesion, • Orolingual (Ol): excessive mastication and jaw movements with tongue protrusion, • Axial (Ax): dystonic postures or choreiform twisting of the neck and of the upper body contralaterally. The severity of the MIAs is scored from 1 to 4 according to the duration of the MIAs over an observation period of one minute: • 0.1=presence of MIAs for less than 30 s • 0.2=presence of MIAs for more than 30 s • 0.3=presence of MIAs during the minute with interruption by external stimuli • 0.4=presence of MIAs during the minute without interruption by external stimuli

[1] = parkinsonian rat, xenon/O2 50%/50% by volume inhaled 1 h, vs control N2/O2 50%/50%, amplitude and duration
[2] = parkinsonian rat, xenon/O2 50%/50% inhaled, vs control N2/O2

[Xe] [xenon]
appearance of the 4 types of dyskinesias (Lo, Li, Ol, Ax) (animals breathing xenon/O2 (50%/50% by volume), amplitude and duration): greatly reduced
axial dyskinesias (Ax), kinetics following administration of L-Dopa (FIG. 3A) [1]: clear decrease
hind limb dyskinesias (Li), kinetics following administration of L-Dopa (FIG. 4A) [1]: significant decrease
locomotor dyskinesias (Lo), kinetics following administration of L-Dopa (FIG. 6A) [1]: large decrease
orolingual dyskinesias (Ol), kinetics following administration of L-Dopa (FIG. 5A) [1]: clear decrease
mean value of hind limb dyskinesias (Li) from 60 to 180 min (FIG. 4B) [2]: fewer hind limb dyskinesias
mean value of locomotor dyskinesias from 60 to 180 min (FIG. 6B) [2]: fewer locomotor dyskinesias
mean value of orolingual dyskinesias (Ol) from 60 to 180 min (FIG. 5B) [2]: fewer orolingual dyskinesias
mean value of the axial dyskinesias from 60 to 180 min (FIG. 3B) [2]: fewer axial dyskinesias
